In brackets after ≈: the same amount, converted by molar mass. Several values for one entry are separate records, joined by “and”; a condition that tells them apart may be missing. Equal entries are not always repeated. Where two headings read alike, the source gives them in different places.
Tests used:
[1] = tested on: L5178Y (TK-/-) lymphoma; design: method as in Stephens et al, 1994; Jackman et al, 1997; details: ref Stephens et al, 1994, Jackman et al, 1997, cited from earlier work
[2] = Aqueous solubility; assay type: physicochemical
[3] = Plasma pharmacokinetics of ZD9331 (HPLC, non-compartmental); assay type: in vivo, mice; details: for AUC(0-t): read-out: AUC0-8h; for concentration at 4 h: read-out: plasma drug concentration at 4 h; for Cmax / Tmax: mouse
Experimental: (§1) British Journal of Cancer (1998) 78(11), 1457-1463 ? […] In contrast to Tomudex (ZD1694), ZD9331 may therefore be active against tumours with low FPGS activity. […] In view of the history of renal toxicity with some earlier TS inhibitors and the possible therapeutic use of bolus ZD9331, we have examined the effects of bolus ZD9331 dose and route of administration on plasma and kidney pharmacokinetics and renal function in mice. Renal function was assessed by measuring [14C]inulin clearance, and drug concentrations were assayed by reverse-phase high-performance liquid chromatography (HPLC). […] Kidney drug concentrations were slightly elevated in iv.- versus i.p.-treated animals at the low dose (50 mg kg-'), with a correspondingly larger area under the curve. However, at the highest dose (200 mg kg-'), peak kidney drug concentrations were 20-fold higher following i.v. administration than after i.p., with marked kidney retention, resulting in a 50-fold greater kidney drug exposure for the i.v. versus the i.p. route. […] These adverse effects can be readily overcome by i.p. administration, indicating the likely need for short infusions in clinical settings. […] Early studies established that nephrotoxicity may be a result of poor aqueous solubility of 2-amino compounds such as CB3717, and it was shown that 2-desamino CB3717 was more water soluble and less nephrotoxic (Jones et al, 1989; 1996). […] These polyglutamate forms also exibit intra- cellular retention, which may contribute to toxicity as well as anti- tumour activity. […] Such compounds might be expected to show activity in a different spectrum of tumours from ZD1694 and to have a more manageable toxicity profile because of the lack of retained cyto- toxic metabolites. […] MATERIALS AND METHODS Drug administration and animals The compound ZD933 1 (Figure 1) was provided as a white crystalline salt. ['4C]inulin was provided as a carboxylic acid (Amersham, UK, 250 µCi in 5 ml, specific activity 6.6 mCi mmol-') and diluted to an activity of 5 µCi ml-' in phosphate-buffered saline (PBS). ZD9331 was dissolved in 0.05 M sodium bicarbonate, 1457 1458 Ml Walton et al ~~ N Ny~~~14COOHH 0 H IN H N CH ~~~~H , 4 H3C N3 H Figure 1 The chemical structure of ZD9331 adjusted to pH 9.0 and administered either i.v. via the tail vein or i.p. at 0.01 ml g-' mouse body weight. [14C]inulin was administered at 0.05 gCi g-' (i.e. 0.01 ml g-') i.v. via the tail vein. Adult female DBA-2 mice were obtained from OLAC (Bicester, UK) and used at 8-12 weeks of age at a body weight of 15-25 g. Mice were housed in cages containing untreated sawdust and allowed access to food and water ad libitum. Sample preparation Plasma and tissue samples were prepared using standard tech- niques (Walton et al, 1996). Briefly, whole blood was obtained by cardiac puncture into heparinized syringes from halothane- anaesthetized mice. Plasma was prepared by centrifugation at 12 000 r.p.m. x 2 min in a bench-top microcentrifuge. Kidney and liver tissues were rapidly removed, washed and snap frozen on dry ice. Frozen plasma and tissues were stored at -20?C for up to 4 weeks prior to analysis. Individual samples were thawed on ice and handled rapidly. ZD9331 was extracted from whole plasma or tissue homogenates (33% w/v in 0.1 M Tris, pH 10.0) by the addition of an equal volume of acetonitrile, mixing and centrifugation and the super- natant removed for injection into the HPLC system. Samples were diluted with Tris buffer (0.1 M, pH 10.0) on to the linear part of the calibration curve prior to HPLC analysis. Extraction efficiencies were >95%. HPLC analysis Concentrations of ZD9331 were measured in biological samples using reversed phase HPLC on equipment supplied by Kontron (Watford, UK). Separations were carried out using stainless-steel columns heated at 45?C and packed with C18 Supelcosil ODS (10 cm x 4.6 mm, 5 µm bead size, Sigma, Dorset) and protected with NewGuard C18 columns (Anachem, Luton, UK). […]

[4] = Peak plasma concentration in phase I, 30 min infusion; assay type: in vivo; details: after 30 min infusion
[5] = tested on: DBA-2 mice; test: Kidney histology (H & E) and immunohistochemical staining for ZD9331; assay type: in vivo
[6] = tested on: DBA-2 mice; test: Glomerular filtration rate (GFR) by [14C]inulin clearance after bolus drug; assay type: in vivo
Experimental: as §1

[7] = female, ip, plasma, DBA-2 mice, 50 mg kg-1 i.p.
[8] = female, ip, plasma, DBA-2 mice, 200 mg kg-1 i.p.
[9] = female, iv, plasma, DBA-2 mice, 50 mg kg-1 i.v. bolus
[10] = female, iv, plasma, DBA-2 mice, 100 mg kg-1 i.v. bolus
[11] = female, iv, plasma, DBA-2 mice, 200 mg kg-1 i.v. bolus

For `C#CCN(Cc1cc2c(=O)[nH]c(C)nc2cc1C)c1ccc(C(=O)N[C@@H](CCc2nnn[nH]2)C(=O)O)c(F)c1` [ZD9331, (2S)-2-{O-fluoro-p-(N-(2,7-dimethyl-4-oxo-3,4-dihydroquinazolin-6-ylmethyl)-N-(prop-2-ynyl)amino}benzamido}-4-(tetrazol-5-yl)butyric acid], the anti-tumour activity ([1]; 24-h s.c. infusion, 3 mg kg-1) is listed as “anti-tumour activity”, the anti-tumour activity ([1]; bolus administration, 50 mg kg-1) is listed as “anti-tumour activity” and the solubility ([2]; pH 5.3, aqueous buffer) is listed as 0.1 mM (≈ 53.3 µg/mL). The solubility ([2]; pH 7.4, aqueous buffer) was 8 mM (≈ 4260 µg/mL), the “peak plasma concentration i.p. as % of i.v.” value ([3]; 50 mg kg-1) was 11% and the “peak plasma concentration i.p. as % of i.v.” value ([3]; 200 mg kg-1) was 25%. It also gave an AUC(0-t) ([3]; female, DBA-2, mouse, plasma, ip, 50 mg/kg, plasma, DBA-2 mice, 50 mg kg-1 i.p.) of 90.1 µM·h, a half-life ([3]; female, DBA-2, mouse, plasma, ip, 50 mg/kg, plasma, DBA-2 mice, 50 mg kg-1 i.p., read-out: t1/2) of 93.4 min and an AUC(0-t) ([3]; female, DBA-2, mouse, plasma, ip, 200 mg/kg, plasma, DBA-2 mice, 200 mg kg-1 i.p.) of 315 µM·h. It also gave a half-life ([3]; female, DBA-2, mouse, plasma, ip, 200 mg/kg, plasma, DBA-2 mice, 200 mg kg-1 i.p., read-out: t1/2) of 99 min, a bioavailability ([3]; female, DBA-2, mouse, plasma, ip, 50 mg kg-1, read-out: i.p. bioavailability) of 80% and a concentration at 4 h ([3]; female, DBA-2, mouse, plasma, ip, 50 mg kg-1 i.p.) of 1000 nM. It also gave a concentration at 4 h ([3]; female, DBA-2, mouse, plasma, ip, 200 mg kg-1 i.p.) of 1860 nM, an AUC(0-t) ([3]; female, DBA-2, mouse, plasma, iv, 50 mg/kg, plasma, DBA-2 mice, 50 mg kg-1 i.v. bolus) of 75.3 µM·h and a half-life ([3]; female, DBA-2, mouse, plasma, iv, 50 mg/kg, plasma, DBA-2 mice, 50 mg kg-1 i.v. bolus, read-out: t1/2 (apparent terminal elimination)) of 57 min. The AUC(0-t) ([3]; female, DBA-2, mouse, plasma, iv, 100 mg/kg, plasma, DBA-2 mice, 100 mg kg-1 i.v. bolus) was 109 µM·h, the half-life ([3]; female, DBA-2, mouse, plasma, iv, 100 mg/kg, plasma, DBA-2 mice, 100 mg kg-1 i.v. bolus, read-out: t1/2) was 91.7 min and the AUC(0-t) ([3]; female, DBA-2, mouse, plasma, iv, 200 mg/kg, plasma, DBA-2 mice, 200 mg kg-1 i.v. bolus) was 332 µM·h. The half-life ([3]; female, DBA-2, mouse, plasma, iv, 200 mg/kg, plasma, DBA-2 mice, 200 mg kg-1 i.v. bolus, read-out: t1/2) was 64.5 min, the concentration at 4 h ([3]; female, DBA-2, mouse, plasma, iv, 50 mg kg-1 i.v.) was 1100 nM and the concentration at 2 min ([3]; female, DBA-2, mouse, plasma, iv, 100 mg kg-1 i.v., read-out: plasma drug concentration at 2 min) was 898000 nM. For the same compound, the concentration at 5 min ([3]; female, DBA-2, mouse, plasma, iv, 100 mg kg-1 i.v., read-out: plasma drug concentration at 5 min) was 771000 nM, the concentration at 4 h ([3]; female, DBA-2, mouse, plasma, iv, 200 mg kg-1 i.v.) was 1300 nM and the Cmax [3, 7] was 74100 ng/mL and 139 µM. For the same compound, the Tmax [3, 7] was 10 min, the Cmax [3, 8] was 483000 ng/mL and 906 µM and the Tmax [3, 8] was 10 min. For the same compound, the Cmax [3, 9] was 696000 ng/mL and 1.31 mM, the Tmax [3, 9] was 1 min and the Cmax [3, 10] was 708000 ng/mL and 1.32 mM. The Tmax [3, 10] was 1 min, the Cmax [3, 11] was 1.9e+06 ng/mL and 3.63 mM and the Tmax [3, 11] was 1 min. The “relation of plasma drug exposure (AUC) to dose” value ([3]; i.p., range 0-200 mg kg-1) was “linearly related to dose”, the “relation of plasma drug exposure (AUC) to dose” value ([3]; i.v., up to 200 mg kg-1) was “marked deviation from linearity at the highest dose” and the peak plasma concentration ([3]; plasma, 50 mg kg-1 i.v.) was 1.3 mM. For the same compound, the “i.p. AUC0-8h as % of i.v.” value ([3]; plasma, 200 mg kg-1) was 63%, the “t1/2 (apparent terminal elimination)” value ([3]; plasma, DBA-2 mice, 50 mg kg-1 i.v. bolus) was 57.7 min and the “peak plasma drug concentration in man as % of that after 200 mg kg-1 i.v. in mouse” value [4] was < 1%. The renal histology ([5]; 200 mg kg-1 i.v., 4 h after) was “evidence of tubular dilatation (Figure SB), with the presence of fine granular casts in the tubules”, the “drug distribution in kidney tissue (histology with immunohistochemical staining)” value ([5]; 200 mg kg-1 i.v., data not shown) was “uniform drug distribution in tissue with no evidence of drug precipitation” and the renal histology ([5]; lower drug doses) was “some tubular dilatation”. The “effect on renal function (GFR)” value ([6]; 50 mg kg-1, 4 h after administration) was “minimal effects on renal function”, the “effect on GFR” value ([6]; 150 mg kg-1 i.p., 24 h after administration) was “no effect” and the “effect on GFR” value ([6]; 150 mg kg-1 i.v., 4 h after administration) was “slight decrease in GFR”. For the same compound, the “effect on GFR” value ([6]; 150 mg kg-1 i.v., 24 h after administration) was “no effect”, the “effect on GFR” value ([6]; 200 mg kg-1 i.p.) was “minimal” and the “effect on GFR” value ([6]; 200 mg kg-1 i.v., 4 h after administration) was “profound decrease in GFR”. The “effect on GFR” value ([6]; 200 mg kg-1 i.v., 24 h after administration) was “GFR inhibition was less profound”, the nephrotoxicity ([6]; active anti-tumour dose, 50 mg kg-1 i.p., mice) was “non-nephrotoxic” and the “effect on renal function (GFR)” value ([6]; doses up to 150 mg kg-1 i.v. or i.p., 4 or 24 h post treatment) was “no evidence of compromised renal function”.
